ChEMBL document CHEMBL1156062, “Synthesis, SAR, and X-ray structure of tricyclic compounds as potent FBPase inhibitors” (Bioorg Med Chem Lett, 2009)

What follows are compounds tested against T1, Fructose-1,6-bisphosphatase 1 (Homo sapiens, UniProt P09467) (assay: Inhibition of human liver FBPase).
T1 sequence (P09467 whole entry): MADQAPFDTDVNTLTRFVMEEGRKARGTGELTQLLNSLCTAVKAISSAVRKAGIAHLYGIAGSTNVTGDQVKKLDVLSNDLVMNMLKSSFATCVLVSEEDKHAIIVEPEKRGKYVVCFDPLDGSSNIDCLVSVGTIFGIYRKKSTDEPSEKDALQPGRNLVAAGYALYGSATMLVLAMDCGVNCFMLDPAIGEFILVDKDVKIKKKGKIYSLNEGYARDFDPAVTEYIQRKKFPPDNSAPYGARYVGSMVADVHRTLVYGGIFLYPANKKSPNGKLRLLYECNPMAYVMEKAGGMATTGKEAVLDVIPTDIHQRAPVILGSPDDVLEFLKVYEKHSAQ

In order of rising IC50:
1. Nc1nc2c(s1)CCCc1ccc(OP(=O)(O)O)cc1-2  0.022 µM
2. Nc1nc2c(s1)CCc1ccc(C(F)(F)P(=O)(O)O)cc1-2  0.047 µM
3. Nc1nc2c(s1)Cc1cccc(OP(=O)(O)O)c1-2  0.07 µM
4. Nc1nc2c(s1)CCCc1ccc(P(=O)(O)O)cc1-2  0.169 µM
5. Nc1nc2c(s1)CCc1ccc(CP(=O)(O)O)cc1-2  0.84 µM
6. Nc1nc2c(s1)CCc1ccc(P(=O)(O)O)cc1-2  9.32 µM
7. Nc1nc2c(s1)CCc1cc(OCP(=O)(O)O)ccc1-2  16.4 µM
8. Nc1nc2c(s1)Cc1ccc(P(=O)(O)O)cc1-2  18.7 µM
9. Nc1nc2c(s1)CCc1ccc(OCP(=O)(O)O)cc1-2  19.1 µM
10. Nc1nc2c(s1)CCc1cccc(OCP(=O)(O)O)c1-2  21.5 µM
11. Nc1nc2c(s1)Cc1cccc(P(=O)(O)O)c1-2  28.4 µM
12. Nc1nc2c(s1)CCCc1ccc(OCP(=O)(O)O)cc1-2  41.7 µM
13. Nc1nc2c(s1)Cc1cc(P(=O)(O)O)ccc1-2  91.9 µM
14. Nc1nc2c(s1)CCc1cc(OP(=O)(O)O)ccc1-2  112 µM
15. Nc1nc2c(s1)Cc1cc(OCP(=O)(O)O)ccc1-2  112 µM
16. Nc1nc2c(s1)Cc1ccc(OCP(=O)(O)O)cc1-2  112 µM
17. Nc1nc2c(s1)Cc1cc(OP(=O)(O)O)ccc1-2  146 µM
18. Nc1nc2c(s1)Cc1ccc(OP(=O)(O)O)cc1-2  307 µM
19. Nc1nc2c(s1)CCc1cccc(OP(=O)(O)O)c1-2  335 µM
20. Nc1nc2c(s1)CCc1cc(P(=O)(O)O)ccc1-2  354 µM
21. Nc1nc2c(s1)CCc1cccc(P(=O)(O)O)c1-2  354 µM
